# Where two headings read alike, the source gives them in different places.
# What was measured:
# PAM1154/KPC-2 = assay: Biapenem potentiation MPC64 in PAM1154/KPC-2 (efflux deficient, lacks MexAB-OprM); assay type: cell-based, Pseudomonas aeruginosa
# Description: (§1) Efflux of BLIs from Pseudomonas aeruginosa by the MexAB-OprM efflux pump was also evaluated. The plasmid expressing the gene encoding KPC-2 was introduced into two strains of P. aeruginosa, PAM1032 and PAM 1154 that overexpressed or lacked MexAB-OprM, respectively. […] Potency of BLIs to potentiate biapenem in these strains was determined.
# PAM1032/KPC-2 = assay: Biapenem potentiation MPC64 in PAM1032/KPC-2 (efflux proficient, overexpresses MexAB-OprM); assay type: cell-based, Pseudomonas aeruginosa
# Description: as §1
# KP1004 KPC-2 [1] = assay: Biapenem potentiation (MPC@1), strain KP1004 KPC-2; assay type: cell-based; conditions: for BPM MPC1 KP1004 KPC-2: minimum BLI concentration inhibiting growth with biapenem 1 μg/mL, tested up to 40 μg/mL
# Description: (§2) Biapenem was present in the test medium at 1 μg/mL. […] Table 3 summarizes the BLI potency of biapenem potentiation (MPC@1) for two strains overexpressing class A (KPC) and class D (OXA-48) carbapenemases. Biapenem MIC for each strain is also shown.
# KP1086 OXA-48 = assay: Biapenem potentiation (MPC@1), strain KP1086 OXA-48; assay type: cell-based; conditions: for BPM MPC1 OXA-48 KP1086: minimum BLI concentration inhibiting growth with biapenem 1 μg/mL, tested up to 40 μg/mL
# Description: as §2
# KP1005 CTX-M-14 = assay: Tigemonam potentiation (MPC@4), strain KP1005 CTX-M-14; conditions: minimum BLI concentration inhibiting growth with tigemonam 4 μg/mL; tested up to 40 μg/mL
# EC1010 CMY-6 = assay: Aztreonam potentiation (MPC@4), strain EC1010 CMY-6; conditions: minimum BLI concentration inhibiting growth with aztreonam 4 μg/mL; tested up to 40 μg/mL
# ec308 SHV-5 = assay: Aztreonam potentiation (MPC@4), strain ec308 SHV-5; conditions: minimum BLI concentration inhibiting growth with aztreonam 4 μg/mL; tested up to 40 μg/mL
# ECL1002 = assay: Aztreonam potentiation (MPC@4), strain ECL1002; conditions: minimum BLI concentration inhibiting growth with aztreonam 4 μg/mL; tested up to 40 μg/mL
# [2] = molecular target: purified class A, C and D enzymes (β-lactamases) (Klebsiella pneumoniae, UniProt Q6XEC0); assay: biochemical; assay type: biochemical; conditions: purified OXA-48; nitrocefin (NCF) as reporter substrate
# [3] = molecular target: T1, purified class A, C and D enzymes (β-lactamases) (UniProt P0AD64, L31Q/G234S/E235K, species not given); assay: biochemical; assay type: biochemical
# T1 construct: Ki (SHV-12, NCF), uM; other: purified SHV-12; nitrocefin (NCF) as reporter substrate
# T1 sequence (P0AD64 1-286 L31Q/G234S/E235K): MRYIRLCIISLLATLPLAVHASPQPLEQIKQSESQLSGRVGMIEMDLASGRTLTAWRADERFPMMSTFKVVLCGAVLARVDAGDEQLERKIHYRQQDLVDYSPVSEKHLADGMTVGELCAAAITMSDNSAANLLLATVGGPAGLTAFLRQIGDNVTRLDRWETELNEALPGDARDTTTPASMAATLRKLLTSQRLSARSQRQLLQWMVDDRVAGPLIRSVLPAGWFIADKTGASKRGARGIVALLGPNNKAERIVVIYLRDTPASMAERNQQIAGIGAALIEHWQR
# [4] = molecular target: purified class A, C and D enzymes (β-lactamases) (Escherichia coli, UniProt Q9L5C7); assay: biochemical; assay type: biochemical; conditions: purified CTX-M-14; nitrocefin (NCF) as reporter substrate
# [5] = molecular target: purified class A, C and D enzymes (β-lactamases) (Enterobacter cloacae, UniProt P05364); assay: biochemical; assay type: biochemical
# [6] = molecular target: purified class A, C and D enzymes (β-lactamases) (Klebsiella pneumoniae, UniProt Q9F663); assay: biochemical; assay type: biochemical; conditions: purified KPC-2; nitrocefin (NCF) as reporter substrate
# KP1010 SHV-12 = assay: Aztreonam potentiation (MPC@4), strain KP1010 SHV-12; conditions: minimum BLI concentration inhibiting growth with aztreonam 4 μg/mL; tested up to 40 μg/mL
# ec302 TEM-10 = assay: Aztreonam potentiation (MPC@4), strain ec302 TEM-10; conditions: minimum BLI concentration inhibiting growth with aztreonam 4 μg/mL; tested up to 40 μg/mL
# KP1004 KPC-2 [7] = assay: Aztreonam potentiation (MPC@4), strain KP1004 KPC-2; conditions: minimum BLI concentration inhibiting growth with aztreonam 4 μg/mL; tested up to 40 μg/mL
# KP1009 CTX-M-15 = assay: Aztreonam potentiation (MPC@4), strain KP1009 CTX-M-15; conditions: minimum BLI concentration inhibiting growth with aztreonam 4 μg/mL; tested up to 40 μg/mL
# [8] = molecular target: T2, purified class A, C and D enzymes (β-lactamases) (Pseudomonas aeruginosa, UniProt P24735); assay: biochemical; assay type: biochemical
# T2 construct: rows headed: Ki (Pa-AmpC, NCF), uM; other: purified Pa-AmpC; nitrocefin (NCF) as reporter substrate
# [9] = molecular target: T3, purified class A, C and D enzymes (β-lactamases) (Acinetobacter baumannii, UniProt Q9L4P2); assay: biochemical; assay type: biochemical; conditions: purified OXA-23; nitrocefin (NCF) as reporter substrate
# T3 construct: rows headed: Ki (OXA-23, NCF), uM; other: purified OXA-23; nitrocefin (NCF) as reporter substrate
# AB1054 OXA-23 = assay: Meropenem potentiation (MPC@8), strain AB1054 OXA-23; assay type: cell-based, Acinetobacter baumannii; conditions: minimum BLI concentration inhibiting growth with meropenem 8 μg/mL; tested up to 20 μg/mL
# AB1053 OXA-72 = assay: Meropenem potentiation (MPC@8), strain AB1053 OXA-72; assay type: cell-based, Acinetobacter baumannii; conditions: minimum BLI concentration inhibiting growth with meropenem 8 μg/mL; tested up to 20 μg/mL
# [10] = purified SHV-12; nitrocefin (NCF) as reporter substrate; read-out: Ki (SHV-12, NCF)
# [11] = purified P99, nitrocefin (NCF) as reporter substrate
# [12] = read-out: Ki (SHV-12, NCF); purified SHV-12; nitrocefin (NCF) as reporter substrate
Compound,TIG MPC4 CTX-M-14 KP1005 (KP1005 CTX-M-14),AZT MPC4 CMY-6 EC1010 (EC1010 CMY-6),AZT MPC4 SHV-5 ec308 (ec308 SHV-5),AZT MPC4 ECL1002 (ECL1002),"Ki (OXA-48, NCF), uM [2]","Ki [3, 10] [nM]","Ki (CTX-M-14, NCF), uM [4]","Ki (KPC-2, NCF), uM [6]",AZT MPC4 SHV-12 KP1010 (KP1010 SHV-12),AZT MPC4 TEM-10 ec302 (ec302 TEM-10),AZT MPC4 KPC-2 KP1004 (KP1004 KPC-2 [7]),AZT MPC4 CTX-M-15 KP1009 (KP1009 CTX-M-15),BPM MPC1 KP1004 KPC-2 (KP1004 KPC-2 [1]),BPM MPC1 OXA-48 KP1086 (KP1086 OXA-48),"Ki [3, 12] [nM]",Ki [8] [nM],Ki [9] [nM],"Ki (P99, NCF), uM [5]",MPM MPC8 AB1054 OXA-23 (AB1054 OXA-23),MPM MPC8 AB1053 OXA-72 (AB1053 OXA-72),also measured
"C[C@@H](O)[C@H]1C(=O)N2C(C(=O)[O-])=C(SC3Cn4cnc[n+]4C3)[C@H](C)[C@H]12 (stereo partly shown) [Biapenem, reference compound]",,,,,,,,,,,,,,,,,,,,,"MIC (PAM1154/KPC-2; Pseudomonas aeruginosa, P. aeruginosa PAM1154 expressing KPC-2, biapenem alone): 32 µg/mL; MIC (PAM1032/KPC-2; Pseudomonas aeruginosa, P. aeruginosa PAM1032 expressing KPC-2, biapenem alone): 32 µg/mL; MIC (KP1004 KPC-2 [1]; strain KP1004 KPC-2, biapenem alone): 32 µg/mL; MIC (KP1086 OXA-48; strain KP1086 OXA-48, biapenem alone): 16 µg/mL"
"Nc1nnc(C(=O)NC2CB(O)Oc3c(C(=O)O)cccc32)s1 (stereo not shown) [Compound 2, 4-(5-AMINO-1,3,4-THIADIAZOLE-2-CARBOXAMIDO)-2-HYDROXY-3,4-DIHYDRO-2H-BENZO[E][1,2]OXABORININE-8-CARBOXYLIC ACID]",X (X = MPC@4 ≤ 5 μg/mL),X (X = MPC@4 ≤ 5 μg/mL),X (X = MPC@4 ≤ 5 μg/mL),X (X = MPC@4 ≤ 5 μg/mL),X (X = Ki ≤ 0.1 μM),< 100,X (X = Ki ≤ 0.1 μM),X (X = Ki ≤ 0.1 μM),X (X = MPC@4 ≤ 5 μg/mL),X (X = MPC@4 ≤ 5 μg/mL),X (X = MPC@4 ≤ 5 μg/mL),X (X = MPC@4 ≤ 5 μg/mL),X (X = MPC@1 ≤ 5 μg/mL),X (X = MPC@1 ≤ 5 μg/mL),,,,,,,"Ki (P99, NCF), uM [5, 11]: X (X = Ki ≤ 0.1 μM); PAM1154/KPC-2 Biapenem MPC64 (PAM1154/KPC-2; BLI concentration decreasing biapenem MIC 64-fold, from 32 μg/ml to 0.5 μg/ml, efflux deficient strain): 1.25; PAM1032/KPC-2 Biapenem MPC64 (PAM1032/KPC-2; BLI concentration decreasing biapenem MIC 64-fold, from 32 μg/ml to 0.5 μg/ml, efflux proficient strain): 20"
"C[C@@H]1Cc2cccc(C(=O)[O-])c2O[B-]1(O)O.[Na+].[Na+] [Compound 10, Disodium; (3R)-4,4-dihydroxy-3-methyl-5-oxa-4-boranuidabicyclo[4.4.0]deca-1(6),7,9-triene-7-carboxylate]",Z (Z = MPC@4 > 20 μg/mL),Z (Z = MPC@4 > 20 μg/mL),Z (Z = MPC@4 > 20 μg/mL),Z (Z = MPC@4 > 20 μg/mL),X (X = Ki ≤ 0.1 μM),,X (X = Ki ≤ 0.1 μM),X (X = Ki ≤ 0.1 μM),Y (Y = 5 μg/mL < MPC@4 ≤ 20 μg/mL),Z (Z = MPC@4 > 20 μg/mL),Y (Y = 5 μg/mL < MPC@4 ≤ 20 μg/mL),Z (Z = MPC@4 > 20 μg/mL),X (X = MPC@1 ≤ 5 μg/mL),Y (Y = 5 μg/mL < MPC@1 ≤ 20 μg/mL),100 to 1000,< 100,> 1000,Y (key: X = Ki ≤ 0.1 μM; Y = 0.1 μM < Ki ≤ 1 μM; Z = Ki > 1 μM),Z (Z = MPC@1 > 20 μg/mL),Z (Z = MPC@1 > 20 μg/mL),
"NCCn1cc(-c2ccc3c(c2C(=O)O)O[B-](O)(O)CC3)nn1 [Compound 17, Disodium; 8-[1-(2-aminoethyl)triazol-4-yl]-4,4-dihydroxy-5-oxa-4-boranuidabicyclo[4.4.0]deca-1(6),7,9-triene-7-carboxylate]",Z (Z = MPC@4 > 20 μg/mL),Y (Y = 5 μg/mL < MPC@4 ≤ 20 μg/mL),Z (Z = MPC@4 > 20 μg/mL),Z (Z = MPC@4 > 20 μg/mL),X (X = Ki ≤ 0.1 μM),,X (X = Ki ≤ 0.1 μM),X (X = Ki ≤ 0.1 μM),Y (Y = 5 μg/mL < MPC@4 ≤ 20 μg/mL),Z (Z = MPC@4 > 20 μg/mL),X (X = MPC@4 ≤ 5 μg/mL),Z (Z = MPC@4 > 20 μg/mL),X (X = MPC@1 ≤ 5 μg/mL),X (X = MPC@1 ≤ 5 μg/mL),100 to 1000,100 to 1000,< 100,Y (key: X = Ki ≤ 0.1 μM; Y = 0.1 μM < Ki ≤ 1 μM; Z = Ki > 1 μM),X (X = MPC@1 ≤ 5 μg/mL),X (X = MPC@1 ≤ 5 μg/mL),
"O=C([O-])c1c(-c2ccn[nH]2)ccc2c1O[B-](O)(O)CC2.[Na+].[Na+] [Compound 15, Disodium; 4,4-dihydroxy-8-(1H-pyrazol-5-yl)-5-oxa-4-boranuidabicyclo[4.4.0]deca-1(6),7,9-triene-7-carboxylate]",Z (Z = MPC@4 > 20 μg/mL),X (X = MPC@4 ≤ 5 μg/mL),X (X = MPC@4 ≤ 5 μg/mL),X (X = MPC@4 ≤ 5 μg/mL),X (X = Ki ≤ 0.1 μM),,X (X = Ki ≤ 0.1 μM),X (X = Ki ≤ 0.1 μM),X (X = MPC@4 ≤ 5 μg/mL),X (X = MPC@4 ≤ 5 μg/mL),X (X = MPC@4 ≤ 5 μg/mL),X (X = MPC@4 ≤ 5 μg/mL),X (X = MPC@1 ≤ 5 μg/mL),X (X = MPC@1 ≤ 5 μg/mL),< 100,< 100,< 100,X (key: X = Ki ≤ 0.1 μM; Y = 0.1 μM < Ki ≤ 1 μM; Z = Ki > 1 μM),X (X = MPC@1 ≤ 5 μg/mL),X (X = MPC@1 ≤ 5 μg/mL),
"C#CCOc1ccc2c(c1C(=O)O)OB(O)CC2 [Compound 25, 2-Hydroxy-7-prop-2-ynoxy-3,4-dihydro-1,2-benzoxaborinine-8-carboxylic acid]",Z (Z = MPC@4 > 20 μg/mL),X (X = MPC@4 ≤ 5 μg/mL),X (X = MPC@4 ≤ 5 μg/mL),X (X = MPC@4 ≤ 5 μg/mL),X (X = Ki ≤ 0.1 μM),< 100,X (X = Ki ≤ 0.1 μM),X (X = Ki ≤ 0.1 μM),X (X = MPC@4 ≤ 5 μg/mL),X (X = MPC@4 ≤ 5 μg/mL),X (X = MPC@4 ≤ 5 μg/mL),X (X = MPC@4 ≤ 5 μg/mL),X (X = MPC@1 ≤ 5 μg/mL),X (X = MPC@1 ≤ 5 μg/mL),,,< 100,,X (X = MPC@1 ≤ 5 μg/mL),X (X = MPC@1 ≤ 5 μg/mL),"Ki ([8]; purified Pa-AmpC, nitrocefin (NCF) as reporter substrate, read-out: Ki (Pa-AmpC, NCF)): < 100 nM; Ki (P99, NCF), uM [5, 11]: X (X = Ki ≤ 0.1 μM)"

# Reference: patent US10618918B2, “Substituted boronic acids as antimicrobials” (priority 2015, dated 2020)
